Measured values as given in patent publication US10973857B2, “Mesenchymal stem cell and use thereof for treatment of muscle injury and muscle-associated diseases” (EXOSTEM BIOTEC LTD., priority 2016, dated 2021).

The molecules below were run on MyoD (assay: Myogenic priming of MSCs, MyoD-GFP reporter). Conditions: Nanog mRNA transfection prior to co-culture (Protocol B); one day incubation with 5-AZA (Protocol C).
Format: cell-based, human
Text: In light of the ability of MSCs to induce muscle regeneration, reduce muscle fibrosis and increase engraftment via paracrine effects, a method of supplementing the therapeutic effect of MSCs was developed. This method, called “myogenic priming”, increased the cell's paracrine effects on muscle cells on the one hand and promoted the MSC's own differentiation to muscle cells on the other. This priming increased the ability of MSCs to differentiate into satellite cells that undergo asymmetric division and to myoblasts that fuse with existing muscle fibers and deliver dystrophin to the cells. It was hypothesized that inducing MyoD expression in the cells would be one method of priming. This was tested by culturing CH- and UC-MSCs containing a MyoD-GFP reporter, in trans-well plates with human muscle cells (Protocol A). In this way, the extracellular vesicles and secreted factors from the muscle cells were able to contact the MSCs. A 3-day incubation resulting in a greater than 2-fold increase in MyoD expression as compared to control cells that had not be exposed to muscle cells (FIG. 3).
In addition to co-cultures with muscle cells, various methods were employed that would induced transient stem cell characteristics in MSCs to increase their muscle differentiation abilities in response to subsequent factors. […]

| Molecule | myoD expression |
| --- | --- |
| Nc1ncn([C@@H]2O[C@H](CO)[C@@H](O)[C@H]2O)c(=O)n1 [5-azacytidine] | increased |

The molecules below were run on MSCs (assay: Priming of MSCs to a stem cell phenotype (Protocols D and E)). Conditions: 24 hours, followed by media with a pH of about 6 for 1 hour or hypoxia for 24 hours (Protocol D).
Format: cell-based
Experimental: These incubations were also performed after first transfecting the MSCs with the modified Nanog mRNA.

| Molecule | primed stem cell phenotype in MSCs |
| --- | --- |
| C[C@@H](N)[C@H]1CC[C@H](C(=O)Nc2ccncc2)CC1 [Y-27632] | induced a primed stem cell phenotype |

Same assay, conditions: incubation for 1-6 days (Protocol E)

| Molecule | priming of MSCs |
| --- | --- |
| N[C@@H]1C[C@H]1c1ccccc1 (racemic) [tranylcypromine] | primed the MSCs to a degree |
| Nc1nccc2c1ncn2[C@@H]1C=C(CO)[C@@H](O)[C@H]1O [3-deazaneplanocin A] | primed the MSCs to a degree |
| Cc1cccc(-c2nn(C(=S)Nc3ccccc3)cc2-c2ccnc3ccccc23)n1 [A83-01] | primed the MSCs to a degree |
| Cc1c[nH]c(-c2cnc(NCCNc3ccc(C#N)cn3)nc2-c2ccc(Cl)cc2Cl)n1 [CHIR99021] | primed the MSCs to a degree |
| [Cl-].[Li+] [LiCl] | primed the MSCs to a degree |
| CC(C)n1nc(-c2cc3cc(O)ccc3[nH]2)c2c(N)ncnc21 [PP242] | primed the MSCs to a degree |
| Cc1cccc(-c2[nH]ncc2-c2ccc3ncccc3n2)n1 [RepSox] | primed the MSCs to a degree |
| NC(=O)c1ccc(-c2nc(-c3ccc4c(c3)OCO4)c(-c3ccccn3)[nH]2)cc1 [SB431542] | primed the MSCs to a degree |
| O=C(NCc1ccccc1)c1csc(Nc2ccncn2)n1 [Thiazovivin] | primed the MSCs to a degree |
| O=c1c(O)c(-c2ccc(O)c(O)c2)oc2cc(O)ccc12 [fistein] | primed the MSCs to a degree |
| CN(C)C(=N)N=C(N)N [metformin] | primed the MSCs to a degree |
| Oc1ccc(C=Cc2cc(O)cc(O)c2)cc1 [resveratrol] | primed the MSCs to a degree |
| CCCC(CCC)C(=O)O [valporic acid] | primed the MSCs to a degree |

What follows are molecules tested on MSCs (assay: Protocol 3 differentiation of MSCs to hybrid cells with growth factors). Conditions: individually and in combination, as replacements or in combination with HGF and PDGF.
Format: cell-based
Experimental: A shortened third protocol (Protocol 3) was examined and was also found to produce MSC-muscle cell hybrid cells. The MSCs were cultured in normal MSC culturing conditions followed by supplementation of the media for 24 hours with 5-AZA. The cells were than grown in media supplemented with 2% horse serum and HGF and PDGF for 2 weeks. […] The following growth factors were tested both individually and in combination as replacements or in combination with HGF and PDGF: EGF, IGF1, PDGFAA, PDGFBB, and VEGF. […] Additionally, the protocol could be halted by moving the treated MSCs to non-supplemented MSC media. Hybrid cells that were produced could thus be halted from further differentiation.
All three protocols were also performed with MSCs that had first undergone myogenic priming as described above.

| Molecule | production of hybrid cells from MSCs |
| --- | --- |
| IGF1: growth factor | found to produce hybrid cells |
| PDGFAA: growth factor | found to produce hybrid cells |
| VEGF | found to produce hybrid cells |
